This assay addresses T1, HDAC6 (Homo sapiens, UniProt Q9UBN7).
T1 construct: Full length human recombinant HDAC6 protein was expressed in baculoviral system; made in house; host or cells: baculoviral system
T1 sequence (Q9UBN7 1-1215): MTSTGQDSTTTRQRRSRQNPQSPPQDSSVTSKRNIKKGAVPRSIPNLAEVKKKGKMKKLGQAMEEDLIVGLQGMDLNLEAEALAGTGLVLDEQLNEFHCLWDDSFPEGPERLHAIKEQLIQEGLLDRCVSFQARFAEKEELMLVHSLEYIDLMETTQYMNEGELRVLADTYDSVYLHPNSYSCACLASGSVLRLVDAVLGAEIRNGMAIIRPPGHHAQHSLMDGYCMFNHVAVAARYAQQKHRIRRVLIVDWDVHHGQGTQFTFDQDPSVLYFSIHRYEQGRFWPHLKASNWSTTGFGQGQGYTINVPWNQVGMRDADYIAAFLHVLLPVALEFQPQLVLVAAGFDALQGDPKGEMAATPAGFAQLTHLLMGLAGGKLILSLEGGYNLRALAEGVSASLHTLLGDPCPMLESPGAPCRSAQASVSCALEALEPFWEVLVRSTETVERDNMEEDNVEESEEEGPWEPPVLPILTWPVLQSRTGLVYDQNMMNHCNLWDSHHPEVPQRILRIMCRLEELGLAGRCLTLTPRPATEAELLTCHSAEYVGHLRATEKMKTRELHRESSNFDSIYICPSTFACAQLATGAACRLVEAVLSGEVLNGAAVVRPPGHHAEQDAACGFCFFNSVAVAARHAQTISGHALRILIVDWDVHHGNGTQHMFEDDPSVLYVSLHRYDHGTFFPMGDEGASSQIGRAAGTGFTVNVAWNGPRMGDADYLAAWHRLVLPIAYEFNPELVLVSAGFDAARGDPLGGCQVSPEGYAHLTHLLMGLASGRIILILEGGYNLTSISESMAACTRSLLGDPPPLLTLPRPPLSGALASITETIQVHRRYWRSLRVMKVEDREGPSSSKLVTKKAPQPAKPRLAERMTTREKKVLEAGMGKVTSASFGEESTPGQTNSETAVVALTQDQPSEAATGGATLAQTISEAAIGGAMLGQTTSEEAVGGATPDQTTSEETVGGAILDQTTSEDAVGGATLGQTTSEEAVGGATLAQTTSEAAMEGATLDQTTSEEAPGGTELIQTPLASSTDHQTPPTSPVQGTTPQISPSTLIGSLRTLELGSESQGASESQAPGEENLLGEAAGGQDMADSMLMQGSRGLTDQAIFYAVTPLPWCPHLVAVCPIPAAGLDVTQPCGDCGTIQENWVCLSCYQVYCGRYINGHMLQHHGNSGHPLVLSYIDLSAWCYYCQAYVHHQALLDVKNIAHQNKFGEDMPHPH
Description: In vitro Histone Deacetylase Assay (enzymatic HDAC6 electrophoretic mobility shift assay). Format: biochemical. The conditions noted are these: full length human recombinant HDAC6, 1 nM enzyme, 2 μM peptide substrate RHKK(Ac)-NH2, 25° C.; read-out: HDAC6 activity range. The method, boiled down:
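Full-length recombinant human HDAC6 (baculovirus-expressed, 1 nM) was incubated at 25 °C with 2 μM fluorescent RHKK(Ac)-NH2 peptide in HEPES pH 7.5, KCl, BSA, Triton X-100 and 1% DMSO, then SDS-quenched. Substrate and product were separated by microfluidic mobility shift, and IC50 came from 4-parameter fits of 12-point, 3-fold dilution curves.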

Turning to `COc1cc(N2CC[C@]3(CCc4cc(C(=O)NO)ccc4C3)C2=O)ccc1F` [Compound I-128, (2R)--(4-fluoro-3-methoxyphenyl)-N-hydroxy-2′-oxo-3,4-dihydro-1H-spiro[naphthalene-2,3′-pyrrolidine]-6-carboxamide], the IC50 is at most 100 nM. The figure for `COc1cccc(CN2CC[C@]3(CCc4cc(C(=O)NO)ccc4C3)C2=O)c1` [Compound I-51, (R)-N-hydroxy-1′-(3-methoxybenzyl)-2′-oxo-3,4-dihydro-1H-spiro[naphthalene-2,3′-pyrrolidine]-6-carboxamide] is at most 100 nM; for `O=C(NO)c1ccc2c(c1)CC[C@]1(CCN(Cc3ccccc3F)C1=O)C2` [Compound I-57, (R)-1′-(2-fluorobenzyl)-N-hydroxy-2′-oxo-3,4-dihydro-1H-spiro[naphthalene-2,3′-pyrrolidine]-6-carboxamide] it is at most 100 nM.

Consider `O=C(NO)c1ccc2c(c1)CCC1(CC(=O)N(c3cccnc3)C1)C2` (single isomer, unassigned) [Compound I-224], for which the IC50 was at most 100 nM. Take `O=C(NO)c1ccc2c(c1)CC[C@@]1(CCN(Cc3ccc4ccccc4c3)C1=O)C2` [Compound I-86, (S)-N-hydroxy-1′-(naphthalen-2-ylmethyl)-2′-oxo-3,4-dihydro-1H-spiro[naphthalene-2,3′-pyrrolidine]-6-carboxamide]: the IC50 was at most 100 nM. For the compound `COCCn1c(N2CC[C@]3(CCc4cc(C(=O)NO)ccc4C3)C2=O)nc2ccccc21` [Compound I-12, (R)-N-hydroxy-1′-(1-(2-methoxyethyl)-1H-benzo[d]imidazol-2-yl)-2′-oxo-3,4-dihydro-1H-spiro[naphthalene-2,3′-pyrrolidine]-6-carboxamide], the IC50 lay in the range of 100 to 500 nM. Turning to `O=C(NO)c1ccc2c(c1)CCC1(CCN(C(=O)C3CCCCC3)CC1)O2` [II-3, 1′-(cyclohexanecarbonyl)-N-hydroxyspiro[chromane-2,4′-piperidine]-6-carboxamide], the IC50 is above 500 nM.

For the compound `CN(C)c1ccc(N2CC[C@]3(CCc4cc(C(=O)NO)ccc4C3)C2=O)cc1` [Compound I-93, (R)-1′-(4-(dimethylamino)phenyl)-N-hydroxy-2′-oxo-3,4-dihydro-1H-spiro[naphthalene-2,3′-pyrrolidine]-6-carboxamide], the IC50 is at most 100 nM. As for `O=C(NO)c1ccc2c(c1)CCC1(CCN(CC3CCCCC3)C1=O)C2` (centres unmarked) [Compound I-7, 1′-(cyclohexylmethyl)-N-hydroxy-2′-oxo-3,4-dihydro-1H-spiro[naphthalene-2,3′-pyrrolidine]-6-carboxamide], the IC50 was 100 to 500 nM.

Regarding `O=C(NO)c1ccc2c(c1)CCC1(CCN(c3ccccc3)C1=O)S2(=O)=O` (centres unmarked) [Compound I-238, N-hydroxy-2-oxo-1-phenylspiro[pyrrolidine-3,2′-thiochromane]-6′-carboxamide 1′,1′-dioxide], the IC50 was in the range of 100 to 500 nM. As to `O=C(NO)c1ccc2c(c1)CC[C@]1(CCN(c3ccc4c(c3)OCO4)C1=O)C2` [Compound I-91, (R)-1′-(benzo[d][1,3]dioxol-5-yl)-N-hydroxy-2′-oxo-3,4-dihydro-1H-spiro[naphthalene-2,3′-pyrrolidine]-6-carboxamide], the IC50 is at most 100 nM.

For the compound `CC(C)CN1CC2(CCc3cc(C(=O)NO)ccc3C2)CC1=O` (single isomer, unassigned) [Compound I-207], the IC50 is at most 100 nM. Take `CSc1cccc(N2CC[C@]3(CCc4cc(C(=O)NO)ccc4C3)C2=O)c1` [Compound I-92, (R)-N-hydroxy-1′-(3-(methylthio)phenyl)-2′-oxo-3,4-dihydro-1H-spiro[naphthalene-2,3′-pyrrolidine]-6-carboxamide]: the IC50 was at most 100 nM. Consider `O=C(NO)c1ccc2c(c1)CC[C@@]1(CCN(Cc3ccc(S(=O)(=O)C(F)(F)F)cc3)C1=O)C2` [Compound I-107, (S)-N-hydroxy-2′-oxo-1′-(4-((trifluoromethyl)sulfonyl)benzyl)-3,4-dihydro-1H-spiro[naphthalene-2,3′-pyrrolidine]-6-carboxamide], for which the IC50 was in the range of 100 to 500 nM.

Consider `COc1cc(F)cc(N2CC[C@@]3(CCc4cc(C(=O)NO)ccc4C3)C2=O)c1` [Compound I-148, (2S)-1′-(3-fluoro-5-methoxyphenyl)-N-hydroxy-2′-oxo-3,4-dihydro-1H-spiro[naphthalene-2,3′-pyrrolidine]-6-carboxamide], for which the IC50 was at most 100 nM. The figure for `COCCCN1CCCC2(CCc3cc(C(=O)NO)ccc3C2)C1=O` (single isomer, unassigned) [Compound I-187] is at most 100 nM; for `O=C(NO)c1ccc2c(c1)CCC1(CC(=O)N(CC3COC3)C1)C2` (single isomer, unassigned) [Compound I-215] it is at most 100 nM.

These data come from patent publication US9630922B2, “3-spiro-7-hydroxamic acid tetralins as HDAC inhibitors” (Forma Therapeutics, Inc., priority 2015, dated 2017).
